Experimental data from patent US11554113B2, “Methods for treating disorders or diseases associated with hyperlipidemia and hypercholesterolemia while minimizing side-effects” (The Trustees of the University of Pennsylvania, priority 2004, dated 2023).
Like-named read-outs stand apart in the source and are kept apart here.

Key:
[1] = dogs, six-month toxicity study, doses 0-10 mg/kg; cited from earlier work
[2] = 25 mg per day for 4 weeks, primary hypercholesterolemia, some patients; cited from earlier work
apoAI secretion = conditions: cell culture studies; read-out: IC50 for inhibition of apoAI secretion; cited from earlier work
[3] = molecular target: microsomal triglyceride transfer protein (MTP) (Homo sapiens, UniProt P55157); conditions: for mean percent change in apoB / mean percent change in non-HDL cholesterol / mean percent change in total cholesterol: 6 hoFH subjects
Experimental: This theory was applied in designing a study investigating the safety, tolerability and efficacy of BMS-201038 in patients with homozygous familial hypercholesterolemia (hoFH).
Subjects received once daily dosing of 4 doses of BMS-201038 (0.03, 0.1, 0.3 and 1.0 mg/kg) for 4 weeks at each dose. We chose an initial low dose (0.03 mg/kg) that while not expecting to be efficacious, would be a dose that would be expected to be safe and well tolerated (˜2.1 mg in the 70 kg person) The remaining three doses were chosen by calculating ½ log units of the previous dose.

[4] = rats, cited from earlier work
cholesterol levels = conditions: cited from earlier work
[5] = test system: low density lipoprotein cholesterol (LDL-C); conditions: cited from earlier work
apoB secretion = conditions: cell culture studies; read-out: IC50 for inhibition of apoB secretion; cited from earlier work
LDL-C = conditions: cited from earlier work
cholesterol = conditions: in vivo; cited from earlier work
[6] = 0.3 mg/kg once daily for 4 weeks (second highest dose)
[7] = 1.0 mg/kg once daily for 4 weeks (highest dose)
[8] = dose of 10 mg/kg, rabbits that lack a functional LDL receptor

Sequence of microsomal triglyceride transfer protein (MTP) (P55157 19-894): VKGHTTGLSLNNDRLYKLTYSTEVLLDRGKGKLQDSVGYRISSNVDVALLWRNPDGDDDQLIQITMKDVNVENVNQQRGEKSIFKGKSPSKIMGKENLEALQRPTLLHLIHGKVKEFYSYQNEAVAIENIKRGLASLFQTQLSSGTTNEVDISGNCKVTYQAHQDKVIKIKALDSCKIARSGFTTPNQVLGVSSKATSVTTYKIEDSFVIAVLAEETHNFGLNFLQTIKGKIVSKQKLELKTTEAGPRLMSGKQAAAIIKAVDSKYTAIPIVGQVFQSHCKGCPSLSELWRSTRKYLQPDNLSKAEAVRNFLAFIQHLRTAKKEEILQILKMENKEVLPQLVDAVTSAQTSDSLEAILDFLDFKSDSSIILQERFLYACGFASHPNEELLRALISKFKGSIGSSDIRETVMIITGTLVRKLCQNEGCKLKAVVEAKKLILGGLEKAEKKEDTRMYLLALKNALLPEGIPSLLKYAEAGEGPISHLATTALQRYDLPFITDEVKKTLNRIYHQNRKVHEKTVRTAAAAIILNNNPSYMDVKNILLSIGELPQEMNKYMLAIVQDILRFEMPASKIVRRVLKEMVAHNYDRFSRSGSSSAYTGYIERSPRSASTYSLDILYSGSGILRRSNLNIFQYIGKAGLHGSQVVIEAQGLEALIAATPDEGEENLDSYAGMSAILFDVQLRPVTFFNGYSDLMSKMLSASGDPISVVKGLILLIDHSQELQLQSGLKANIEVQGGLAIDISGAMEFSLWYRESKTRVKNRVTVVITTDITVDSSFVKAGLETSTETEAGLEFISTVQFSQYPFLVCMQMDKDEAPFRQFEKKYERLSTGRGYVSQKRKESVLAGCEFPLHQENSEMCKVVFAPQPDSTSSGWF
Sequence of microsomal triglyceride transfer protein (MTP) (P07237 18-508 partner): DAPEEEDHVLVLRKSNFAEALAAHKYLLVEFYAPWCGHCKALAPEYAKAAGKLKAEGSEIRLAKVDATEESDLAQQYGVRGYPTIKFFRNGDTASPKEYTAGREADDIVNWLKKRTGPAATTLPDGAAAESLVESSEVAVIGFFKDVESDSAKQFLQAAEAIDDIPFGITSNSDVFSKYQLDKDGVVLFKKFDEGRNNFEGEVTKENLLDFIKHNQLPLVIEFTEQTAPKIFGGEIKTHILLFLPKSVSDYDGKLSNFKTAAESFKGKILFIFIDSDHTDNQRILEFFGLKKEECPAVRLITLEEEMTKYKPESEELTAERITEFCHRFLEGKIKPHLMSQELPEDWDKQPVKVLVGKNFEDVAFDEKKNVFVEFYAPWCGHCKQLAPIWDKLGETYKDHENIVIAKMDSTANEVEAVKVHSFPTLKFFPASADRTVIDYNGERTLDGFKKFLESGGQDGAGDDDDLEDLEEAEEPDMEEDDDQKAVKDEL

O=C(NC1CCN(CCCCC2(C(=O)NCC(F)(F)F)c3ccccc3-c3ccccc32)CC1)c1ccccc1-c1ccc(C(F)(F)F)cc1 [BMS-201038, N-(2,2,2-Trifluorethyl)-9-[4-[4-[[[4′-(trifluoromethyl) [1,1′biphenyl]-2-Y1]carbonyl]amino]-1-piperidinyl]butyl]9H-fluorene-9-carboxamide, methanesulfonate]
subacute inflammation and single-cell necrosis of hepatocytes and histiocytosis (phospholipidosis) in the lungs [1]: not in dogs
gastrointestinal (GI) symptoms (steatorrhea, abdominal cramping and distention) [2]: clinically significant
IC50 (apoAI secretion): 6.5 µM
mean percent change in apoB [3, 6]: −15±16%
mean percent change in non-HDL cholesterol [3, 6]: −31±9%
mean percent change in total cholesterol [3, 6]: −30±9%
mean percent change in apoB [3, 7]: −55±13%
mean percent change in non-HDL cholesterol [3, 7]: −60±8.8%
mean percent change in total cholesterol [3, 7]: −58±8.5%
increase in hepatic fat by NMRS from baseline to 4 weeks on 1 mg/kg ([3]; human, in vivo, 4 weeks): 3-37%
doses associated with subacute inflammation and single-cell necrosis of hepatocytes and histiocytosis (phospholipidosis) in the lungs ([4]; six-month toxicity study, doses 0-20 mg/kg): ≥ 0.2 mg/kg
hepatic accumulation of lipids at the end of a 1-month washout period [4]: reversed
LDL cholesterol reduction (cholesterol levels; 10 mg/kg, animal study by Wetterau and colleagues): greater than 80%
cholesterol levels (cholesterol levels; [8]): essentially normalized
plasma AST or ALT (cholesterol levels; [8]): no alteration
ED50 value for lowering cholesterol (cholesterol levels; rabbits that lack a functional LDL receptor): 1.9 mg/kg
reduction of low density lipoprotein cholesterol (LDL-C) ([5]; healthy volunteers with hypercholesterolemia): up to 65%
doses at which gastrointestinal side effects/steatorrhea, elevation of serum transaminases and hepatic fat accumulation were primarily observed ([5]; human clinical development): ≥ 25 mg/day
IC50 (apoB secretion): 0.0008 µM

CC(C)c1c(C(=O)Nc2ccccc2)c(-c2ccccc2)c(-c2ccc(F)cc2)n1CC[C@@H](O)C[C@@H](O)CC(=O)O [atorvastatin]
mean LDL-C reduction (LDL-C; genotype-confirmed hoFH, maximal dose of statins 80 mg/day): about 5.5%

O=C1[C@H](CC[C@H](O)c2ccc(F)cc2)[C@@H](c2ccc(O)cc2)N1c1ccc(F)cc1 [ezetimibe]
total reduction of LDL-C levels (LDL-C; ezetimibe 10 mg/day added to atorvastatin or simvastatin 80 mg/day, hoFH): 27%
reduction of LDL cholesterol (cholesterol): about 18%
